The NIST ThermoML archive (doi:10.1016/j.tca.2016.06.022)

Assay: xn = mol fraction of the nth substance listed
Conditions: 101 kPa, Liquid, Vibrating tube method

NCCN [ethane-1,2-diamine] + O
mass density [kg/m3]
Conditions | 288.15 K | 298.15 K | 308.15 K | 323.15 K | 333.15 K
x1 = 0.002 | – | 996.85 | 993.82 | 987.81 | 982.96
x1 = 0.0033 | – | 996.68 | 993.64 | 987.61 | 982.75
x1 = 0.0047 | – | 996.5 | 993.43 | 987.39 | 982.53
x1 = 0.0072 | – | 996.2 | 993.09 | 987 | 982.12
x1 = 0.009 | – | 995.97 | 992.86 | 986.75 | 981.85
x1 = 0.0123 | – | 995.55 | 992.39 | 986.24 | 981.3
x1 = 0.0222 | – | 994.61 | 991.25 | 984.89 | 979.82
x1 = 0.0436 | – | 993.31 | 989.53 | 982.66 | 977.37
x1 = 0.0609 | – | 992.96 | 988.77 | 981.44 | 975.89
x1 = 0.0827 | – | 993.06 | 988.38 | 980.39 | 974.47
x1 = 0.106 | – | 993.56 | 988.34 | 979.64 | 973.29
x1 = 0.1481 | – | 994.9 | 988.68 | 978.7 | 971.62
x1 = 0.2063 | – | 995.33 | 987.95 | 976.41 | 968.4
x1 = 0.2513 | – | 993.49 | 985.55 | 973.14 | 964.58
x1 = 0.3148 | – | 985.82 | 978.7 | 964.84 | 956.48
x1 = 0.3258 | – | 985.17 | – | – | –
x1 = 0.341 | – | 984.26 | 975.15 | 961.96 | 952.88
x1 = 0.4038 | – | 974.96 | 965.9 | 952.12 | 942.8
x1 = 0.4489 | – | 967.22 | 958.22 | 944.49 | 935.14
x1 = 0.4928 | – | 959.94 | 950.76 | 936.96 | 927.53
x1 = 0.5468 | – | 950.96 | 942.44 | 928.02 | 918.58
x1 = 0.5907 | – | 943.88 | 934.72 | 920.79 | 911.42
x1 = 0.6361 | 945.77 | 936.87 | 927.73 | 913.79 | 904.37
x1 = 0.6843 | 938.88 | 929.8 | 920.72 | 906.8 | 897.38
x1 = 0.7386 | 931.34 | 922.53 | 913.33 | 899.31 | 889.84
x1 = 0.7954 | 924.08 | 914.93 | 905.7 | 891.79 | 882.31
x1 = 0.81 | 922.08 | 912.91 | 903.69 | 889.66 | 880.16
x1 = 0.8505 | 917.35 | 908.14 | 898.88 | 884.84 | 875.33
x1 = 0.898 | 912.03 | 902.85 | 893.62 | 879.53 | 870.05
x1 = 0.9282 | 908.76 | 899.58 | 890.26 | 876.1 | 866.59
x1 = 0.9584 | 905.56 | 896.29 | 886.94 | 872.76 | 863.2
x1 = 0.9678 | 904.59 | 895.3 | 885.94 | 871.75 | 862.17
x1 = 0.9793 | 903.4 | 894.08 | 884.7 | 870.49 | 860.9
x1 = 1 | 901.26 | 891.9 | 882.49 | 868.23 | 858.6
